From ChEMBL document CHEMBL4715871, “4-Acyl Pyrroles as Dual BET-BRD7/9 Bromodomain Inhibitors Address BETi Insensitive Human Cancer Cell Lines” (J Med Chem, 2020)
Active and inactive are the calls of the source. The calls are words filed in the database; no cut-off is given here.

Key:
[1] = target: T1, Bromodomain-containing protein 4 (Homo sapiens, UniProt O60885); experiment: Binding affinity to BRD4 BD1 (unknown origin) at 25 degree C by ITC analysis
HL-60 = experiment: Growth inhibition of human HL60 cells after 72 hrs by CellTiter 96S AQeous non-radioactive cell proliferation assay; type: functional
MCF7 = experiment: Growth inhibition of human MCF7 cells after 72 hrs by CellTiter 96S AQeous non-radioactive cell proliferation assay; type: functional
SK-MEL-5 [2] = experiment: Growth inhibition of human SK-MEL-5 cells after 72 hrs by CellTiter 96S AQeous non-radioactive cell proliferation assay; type: functional
[3] = target: T2, Bromodomain-containing protein 9 (Homo sapiens, UniProt Q9H8M2); experiment: Binding affinity to human partial length BRD9 (R130 to V259 residues) by bromoKdELECT Discover assay
T2 sequence (Q9H8M2 whole entry): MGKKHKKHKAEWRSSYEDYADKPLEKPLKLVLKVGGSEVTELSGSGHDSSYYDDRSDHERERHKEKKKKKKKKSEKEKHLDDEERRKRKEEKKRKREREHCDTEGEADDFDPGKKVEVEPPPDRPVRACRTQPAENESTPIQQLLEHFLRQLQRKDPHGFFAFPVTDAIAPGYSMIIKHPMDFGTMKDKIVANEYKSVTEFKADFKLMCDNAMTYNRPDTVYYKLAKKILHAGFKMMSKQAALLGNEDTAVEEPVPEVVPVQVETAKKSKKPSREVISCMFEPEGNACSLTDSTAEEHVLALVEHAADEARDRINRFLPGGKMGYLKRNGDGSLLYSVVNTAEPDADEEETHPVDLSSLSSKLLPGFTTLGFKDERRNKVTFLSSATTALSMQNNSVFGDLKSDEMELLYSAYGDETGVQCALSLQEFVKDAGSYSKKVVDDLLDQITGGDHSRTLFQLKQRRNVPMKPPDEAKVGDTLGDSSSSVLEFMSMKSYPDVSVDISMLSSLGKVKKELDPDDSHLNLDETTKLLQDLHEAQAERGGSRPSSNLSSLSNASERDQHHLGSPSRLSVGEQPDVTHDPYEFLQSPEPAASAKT

[4] = target: T1, Bromodomain-containing protein 4; experiment: Binding affinity to human BRD4 BD1 (N44 to E168 aa residues) at 10 uM by bromoKdELECT Discover assay
Homo sapiens [5] = organism: Homo sapiens; experiment: Selectivity index, ratio of Kd for BRD7 (unknown origin) to BRD4 BD1 (unknown origin) by bromoKdELECT Discover assay
Homo sapiens [6] = organism: Homo sapiens; experiment: Selectivity index, ratio of Kd for BRD9 (unknown origin) to BRD4 BD1 (unknown origin) by bromoKdELECT Discover assay
Homo sapiens [7] = organism: Homo sapiens; experiment: Selectivity index, ratio of Kd for BRPF1B (unknown origin) to BRD4 BD1 (unknown origin) by bromoKdELECT Discover assay
[8] = target: T1, Bromodomain-containing protein 4; experiment: Binding affinity to BRD4 BD1 (unknown origin) at 15 degree C by ITC analysis
[9] = target: T1, Bromodomain-containing protein 4; experiment: Binding affinity to BRD4 BD1 (unknown origin) at 37 degree C by ITC analysis
SNB-75 = experiment: Growth inhibition of human SNB-75 cells after 72 hrs by CellTiter 96S AQeous non-radioactive cell proliferation assay; type: functional
UACC-62 = experiment: Growth inhibition of human UACC-62 cells after 72 hrs by CellTiter 96S AQeous non-radioactive cell proliferation assay; type: functional
NCI-H522 = experiment: Growth inhibition of human NCI-H522 cells after 72 hrs by CellTiter 96S AQeous non-radioactive cell proliferation assay; type: functional
LOX IMVI = experiment: Cytotoxicity against human LOX-IMVI cells after 72 hrs by CellTiter 96S AQeous non-radioactive cell proliferation assay; type: functional; conditions: read-out: LC50 (the source's name)
SK-MEL-5 [10] = experiment: Cytotoxicity against human SK-MEL-5 cells after 72 hrs by CellTiter 96S AQeous non-radioactive cell proliferation assay; type: functional; conditions: read-out: LC50 (the source's name)
[11] = Cytotoxicity against human A498 cells after 72 hrs by CellTiter 96S AQeous non-radioactive cell proliferation assay; type: functional; conditions: read-out: LC50 (the source's name)
[12] = target: T1, Bromodomain-containing protein 4; experiment: Binding affinity to human BRD4 BD1 (N44 to E168 aa residues) by bromoKdELECT Discover assay

SMILES	Kd [1] [µM]	GI50 (HL-60; Homo sapiens, HL-60) [µM]	GI50 (MCF7; Homo sapiens, MCF7) [µM]	GI50 (SK-MEL-5 [2]; Homo sapiens, SK-MEL-5) [µM]	further results
COc1ccc(S(=O)(=O)N2CCCCCC2)cc1NC(=O)c1[nH]c(C)c2c1CCCCC2=O	0.18	0.565	3	6.85	
CC(=O)c1cc(-c2cc(C(=O)NC3CC3)ccc2C)c2ncccn12		1.33	4.49	2.77	Kd [3]: Not Active
COc1ccc(S(=O)(=O)N2CCCCC2)cc1NC(=O)c1c2c(c(C)n1C)C(=O)CCCC2		> 10	> 10	> 10	Activity [4]: inactive
CCN(CC)S(=O)(=O)c1ccc(OC)c(NC(=O)c2[nH]c(C)c3c2CCCCC3=O)c1	0.14	1.36	6.84	16.3	
CCC(=O)N1CCOc2c(cc(-c3ccc(OC)c(OC)c3)cc2OC[C@H]2CCCN(C)C2)C1		> 50	> 50	> 50	Kd [3]: Not Active
COc1ccc(S(=O)(=O)N2CCOCC2)cc1NC(=O)c1[nH]c(C)c2c1CCCCC2=O	0.08	0.17	7.67	6.8	Ratio (Homo sapiens [5]): 1.4; Ratio (Homo sapiens [6]): 1.1; Ratio (Homo sapiens [7]): 8.7
Cc1cc(=O)n(C)c2cc(N3C(=O)CC[C@H](NS(=O)(=O)CC(C)C)[C@H]3c3ccc(Cl)cc3)ccc12		5.03			
COc1ccc(S(=O)(=O)N2CCN(C)CC2)cc1NC(=O)c1[nH]c(C)c2c1CCCCC2=O	0.42	2.08	> 25	> 20	
COc1ccc(S(=O)(=O)N2CC3(COC3)C2)cc1NC(=O)c1[nH]c(C)c2c1CCCCC2=O	0.26	0.821	5.76	20.8	
CCc1c(C(=O)Nc2cc(S(=O)(=O)N(CC)CC)ccc2O)[nH]c(C)c1C(C)=O		17			
CCN(CC)S(=O)(=O)c1ccc(O)c(NC(=O)c2[nH]c(C)c3c2CCCCC3=O)c1	0.07	> 40	> 40	> 80	Kd [8]: < 0.01 µM; Kd [9]: 0.17 µM
Cc1sc2c(c1C)C(c1ccc(Cl)cc1)=N[C@@H](CC(=O)OC(C)(C)C)c1nnc(C)n1-2					GI50 (HL-60): 0.021 µM; GI50 (MCF7): > 50 µM; GI50 (SK-MEL-5 [2]): > 40 µM
COc1ccc(S(=O)(=O)N2CCCCC2)cc1NC(=O)c1[nH]c(C)c2c1CCCCC2=O	0.05	0.491	4.06	6.79	GI50 (SNB-75): 0.141 µM; GI50 (UACC-62): 0.355 µM; GI50 (NCI-H522): 0.372 µM; CC50 (LOX IMVI): 8.17 µM; CC50 (SK-MEL-5 [10]): 12.2 µM; CC50 [11]: 19.7 µM
CCc1c(C(=O)NCc2c(O)ccc3cccc(O)c23)[nH]c(C)c1C(C)=O		1.3	4.2	4.2	Kd [12]: > 4 µM; Kd ([3]; read-out: Kd): 2.9 µM
